How the values were obtained:
human H3 receptor [1] = molecular target: T1, human H3 receptor (Homo sapiens, UniProt Q9Y5N1); test: In vitro H3 functional assay (cAMP response element driven luciferase reporter); format: cell-based; conditions: CHO(dhfr+)-cre-luc cells expressing human H3 receptor; RαMH 10 nM, forskolin 1 μM; read-out: hH3 functional IC50
T1 construct: expressed in transfected cells
Method: The functional activity of compounds at the H3 receptor was determined by measuring changes in the level of intracellular cAMP using a cAMP response element driven luciferase reporter assay. The changes in luciferase expression were monitored by a luminescence plate reader, Analyst HT (MDS Analytical). Increases in intracellular cAMP were readily detected upon activation of protein kinase A by forskolin (Sigma) and suppression of this response observed with the application of the H3 receptor agonist RαMH (Sigma).
CHO(dhfr^+)-cre-luc cells stably expressing human H3 receptor were routinely grown as monolayers in Minimal Essential Medium α (MEMα) (Invitrogen) supplemented with 10% dialysed FBS (Hyclone), in 5% CO2 at 37° C. 48 hours prior to assay, cells were seeded in clear-base white walled 384-well plates (Corning) at a density of 5000 cells/well. On the day of assay, growth media was removed and replaced with […] of assay buffer (MEMα, 5 mg/ml fatty acid free BSA (Sigma)) per well. Cells were then incubated for 30 minutes at 37° C., 5% CO2. Compound was serially diluted in DMSO before being diluted 1:10 with assay buffer. 2.5 of compound diluted in assay buffer was added and cells incubated for 5 minutes at 37° C., 5% CO2. 2.5 μl of each reagent was then added in the following order: RαMH (10 nM), isobutylmethylxanthine (1-methyl-3-(2-methylpropyl)-7H-purine-2,6-dione; IBMX) (500 μM) (Sigma) and forskolin (1 μM). Cells were then incubated for 90 minutes at 37° C., 5% CO2, followed by 30 minutes at room temperature. At the end of incubation 25 μl of Steadylite reagent (Perkin Elmer) was added, plates were sealed and placed on a shaker for 5 minutes. The level of light output to determine the level of luciferase expression was then measured.
IC50 values for compounds were determined from ten point half log scale dose-response studies and represent the concentration of compound required to […] 50% inhibition of forskolin stimulated cells in the presence of RαMH alone. Curves were generated using the average of duplicate wells for each data point and analyzed using nonlinear regression of four parameter dose response.

human H3 receptor [2] = molecular target: T1, human H3 receptor; test: In vitro H3 binding assay (3H-N-α-methyl-histamine competition binding); conditions: membranes of CHO-K1 cells expressing human H3 receptor; 2 nM 3H-NαMH; read-out: hH3 binding IC50
Method: The ability of compounds to bind to the H3 receptor was determined by measuring the reduction in tritiated N-α-methyl-histamine (^3H—NαMH) binding in a competition binding assay. Changes in the levels of bound radio-label were monitored by scintillation counting with a Trilux Microbeta (Perkin Elmer).
Membranes were prepared from CHO-K1 cells stably expressing human H3 receptor; routinely grown as monolayers in Ham's F12 medium (Invitrogen) supplemented with 10% Foetal Clone 111 (Hyclone), 500 μg/ml G418 (Invitrogen), 5 μg/ml blasticidine S (Invivogen) and […] Gentamicin (Sigma) in 5% CO2 at 37° C. Cells were grown to 80-95% confluency, rinsed once with 1×PBS (Invitrogen) and detached by incubating with 1×PBS containing 0.02% EDTA (Sigma) for 10 minutes at room temperature. Cells were collected by centrifugation at 900×g, 4° C. for 10 minutes. Cells were rinsed once with 1×PBS and re-suspended in ice cold homogenisation buffer (50 mM Tris-HCl (pH 7.4), 2.5 mM EDTA, 5 mM MgCl2, 200 mM Sucrose) at 1×10^7 cells/ml and kept on ice. Cells were homogenised on ice and debris removed by centrifugation at 500×g, 4° C. for 5 minutes. The resulting supernatant was centrifuged at 75,600×g, 4° C. for 60 minutes. Membranes were suspended in homogenisation buffer, protein concentration was determined (BCA Protein Assay kit (Pierce)), diluted to 2.2 mg/ml, dispensed into 1 ml aliquots and stored at −80° C.
Membranes were thawed on ice, sonicated with 4 cycles of 20 pulses (50% amplitude, 0.5 pulse) (UP200S Hielscher) on ice, diluted in assay buffer (50 mM Tris-HCl (pH7.4), 5 mM MgCl2) to 62.5 μg/ml. Compound was serially diluted in DMSO before being diluted 1:10 with assay buffer. 5 μg of membrane in 80 μl of assay buffer was added per well of a 96 well polystyrene plate (Corning). […] of compound was added per well. The assay was initiated by the addition of 10 μl of 20 nM ^3H—NαMH per well and incubated for one hour at room temperature with shaking. Total binding was determined in the presence of 1% DMSO and non-specific binding was determined by the inclusion of 1 μM R-α-methyl-histamine (RαMH). Incubations were then filtered through filtermat A (Perkin Elmer) and washed three times with assay buffer. Filtermats were dried at 42° C. for two hours, scintillant added and the level of bound radioactivity determined.
IC50 values for compounds were determined from seven point log scale dose-response studies and represent the concentration of compound required to inhibit 50% of the specific binding of 2 nM ^3H—NαMH (difference between total and non-specific binding). Curves were generated using the average of duplicate wells for each data point and analyzed using nonlinear regression of sigmoidal dose response (variable slope).

T1 sequence (Q9Y5N1 whole entry): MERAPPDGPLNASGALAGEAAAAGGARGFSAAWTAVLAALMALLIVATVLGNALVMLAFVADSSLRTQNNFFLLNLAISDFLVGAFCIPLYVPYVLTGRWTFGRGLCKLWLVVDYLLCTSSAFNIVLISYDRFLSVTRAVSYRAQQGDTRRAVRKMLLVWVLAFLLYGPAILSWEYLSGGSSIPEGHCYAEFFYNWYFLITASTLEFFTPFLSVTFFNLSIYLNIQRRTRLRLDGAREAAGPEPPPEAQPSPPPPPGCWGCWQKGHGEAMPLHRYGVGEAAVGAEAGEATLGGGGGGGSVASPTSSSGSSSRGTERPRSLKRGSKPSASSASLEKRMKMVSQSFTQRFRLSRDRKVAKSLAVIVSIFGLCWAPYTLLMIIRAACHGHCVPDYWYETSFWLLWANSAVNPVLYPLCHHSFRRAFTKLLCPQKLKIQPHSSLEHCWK

Row | IC50 (human H3 receptor [1]) | IC50 (human H3 receptor [2]) | Structure (SMILES)
1 | 1 nM | 3 nM | O=C(NCc1ccc2[nH]ccc2c1)c1ccc2c(c1)CCN(C1CCC1)CC2 [Example 74, N-((1H-Indol-5-yl)methyl)-3-cyclobutyl-2,3,4,5-tetrahydro-1H-benzo[d]azepine-7-carboxamide]
2 | 4 nM | 2 nM | O=C(Cc1ccc2c(c1)CCN(C1CCC1)CC2)Nc1cccnc1 [Example 224, 2-(3-cyclobutyl-2,3,4,5-tetrahydro-1H-benzo[d]azepin-7-yl)-N-(pyridin-3-yl)acetamide]
3 | 0.7 nM | 1 nM | Cn1nccc1CNC(=O)c1ccc2c(c1)CCN(C1CCC1)CC2 [Example 1, 3-cyclobutyl-N-((1-methyl-1H-pyrazol-5-yl)methyl)-2,3,4,5-tetrahydro-1H-benzo[d]azepine-7-carboxamide]
4 | 1 nM | 16 nM | CC(C)(O)c1ccc(C(=O)NCc2ccc3c(c2)CCN(C2CCC2)CC3)cn1 [Example 239, N-((3-cyclobutyl-2,3,4,5-tetrahydro-1H-benzo[d]azepin-7-yl)methyl)-6-(2-hydroxypropan-2-yl)nicotinamide]
5 | 6 nM | 10 nM | COc1ccc(CC(=O)Cc2ccc3c(c2)CCN(C2CCC2)CC3)cn1 [Example 244, 1-(3-cyclobutyl-2,3,4,5-tetrahydro-1H-benzo[d]azepin-7-yl)-3-(6-methoxypyridin-3-yl)propan-2-one]
6 | 3 nM | 0.3 nM | O=C(NCc1ccc2c(c1)CCN(C1CCC1)CC2)c1cnc(N2CCCC2)nc1 [Example 256, N-((3-cyclobutyl-2,3,4,5-tetrahydro-1H-benzo[d]azepin-7-yl)methyl)-2-(pyrrolidin-1-yl)pyrimidine-5-carboxamide]
7 | 71 nM | 22 nM | NC(=O)c1ccc2c(c1)CCN(C1CCC1)CC2 [Example 167, 3-cyclobutyl-2,3,4,5-tetrahydro-1H-benzo[d]azepine-7-carboxamide]
8 | 16 nM | 2 nM | CCC(=O)N1CCC(CC(O)Cc2ccc3c(c2)CCN(C2CCC2)CC3)CC1 (single isomer, unassigned) [Example 233, 1-(4-(3-(3-cyclobutyl-2,3,4,5-tetrahydro-1H-benzo[d]azepin-7-yl)-2-hydroxypropyl)piperidin-1-yl)propan-1-one]
9 | 3 nM | 0.6 nM | O=C(NCc1ccc2c(c1)CCN(C1CC(F)C1)CC2)c1ccc(N2CCCC2)nc1 (stereo not drawn) [Example 242, N-((3-(3-fluorocyclobutyl)-2,3,4,5-tetrahydro-1H-benzo[d]azepin-7-yl)methyl)-6-(pyrrolidin-1-yl)nicotinamide]
10 | 9 nM | 6 nM | Cc1ncc(C(=O)NCc2ccc3c(c2)CCN(C2CCC2)CC3)cn1 [Example 211, N-((3-cyclobutyl-2,3,4,5-tetrahydro-1H-benzo[d]azepin-7-yl)methyl)-2-methylpyrimidine-5-carboxamide]
11 | 2 nM | 4 nM | O=C(NCc1nc2ccccc2s1)c1ccc2c(c1)CCN(C1CCC1)CC2 [Example 78, N-(Benzo[d]thiazol-2-ylmethyl)-3-cyclobutyl-2,3,4,5-tetrahydro-1H-benzo[d]azepine-7-carboxamide]
12 | 4 nM | 6 nM | C[C@@H]1CCCN1C(=O)NCc1ccc2c(c1)CCN(C1CCC1)CC2 [Example 265, (R)—N-((3-cyclobutyl-2,3,4,5-tetrahydro-1H-benzo[d]azepin-7-yl)methyl)-2-methylpyrrolidine-1-carboxamide]
13 | 1 nM | 11 nM | Cn1ccc(CNC(=O)c2ccc3c(c2)CCN(C2CCC2)CC3)n1 [Example 103, 3-Cyclobutyl-N-((1-methyl-1H-pyrazol-3-yl)methyl)-2,3,4,5-tetrahydro-1H-benzo[d]azepine-7-carboxamide]
14 | 7 nM | 26 nM | O=C(NCc1ccc2c(c1)CCN(C1CCC1)CC2)N1CCCC1 [Example 194, N-((3-cyclobutyl-2,3,4,5-tetrahydro-1H-benzo[d]azepin-7-yl)methyl)pyrrolidine-1-carboxamide]
15 | 3 nM | 6 nM | O=C(NCc1cccc(C(F)(F)F)c1)c1ccc2c(c1)CCN(C1CCC1)CC2 [Example 59, 3-Cyclobutyl-N-(3-(trifluoromethyl)benzyl)-2,3,4,5-tetrahydro-1H-benzo[d]azepine-7-carboxamide]
16 | 20 nM | 41 nM | CC(C)(O)CC(=O)NCc1ccc2c(c1)CCN(C1CCC1)CC2 [Example 216, N-((3-cyclobutyl-2,3,4,5-tetrahydro-1H-benzo[d]azepin-7-yl)methyl)-3-hydroxy-3-methylbutanamide]
17 | 6 nM | 18 nM | Cc1noc(C)c1C(=O)NCc1ccc2c(c1)CCN(C1CCC1)CC2 [Example 263, N-[(3-cyclobutyl-2,3,4,5-tetrahydro-1H-3-benzazepin-7-yl)methyl]-3,5-dimethyl-1,2-oxazole-4-carboxamide]
18 | 0.5 nM | 2 nM | CCn1nccc1CNC(=O)c1ccc2c(c1)CCN(C1CCC1)CC2 [Example 100, 3-cyclobutyl-N-((1-ethyl-1H-pyrazol-5-yl)methyl)-2,3,4,5-tetrahydro-1H-benzo[d]azepine-7-carboxamide]
19 | 4 nM | 1 nM | O=C(NCc1ccc2c(c1)CCN(C1CCC1)CC2)c1ccc(NC2CCC2)nc1 [Example 253, N-((3-cyclobutyl-2,3,4,5-tetrahydro-1H-benzo[d]azepin-7-yl)methyl)-6-(cyclobutylamino)nicotinamide]
20 | 2 nM | 3 nM | O=C(NCc1ccncc1)c1ccc2c(c1)CCN(C1CCC1)CC2 [Example 40, 3-Cyclobutyl-N-(pyridin-4-ylmethyl)-2,3,4,5-tetrahydro-1H-benzo[d]azepine-7-carboxamide]
21 | 4 nM | 14 nM | O=C(NCC1CCS(=O)(=O)C1)c1ccc2c(c1)CCN(C1CCC1)CC2 (stereo not drawn) [Example 171, 3-Cyclobutyl-2,3,4,5-tetrahydro-1H-benzo[d]azepine-7-carboxylic acid (1,1-dioxo-tetrahydro-1lambda*6*-thiophen-3-ylmethyl)-amide]
22 | 6 nM | 11 nM | CCC(=O)N1CCC[C@H](CC(O)Cc2ccc3c(c2)CCN(C2CCC2)CC3)C1 (single isomer, unassigned) [Example 251]
23 | 2 nM | 13 nM | O=C(NCc1ccc2c(c1)CCN(C1CCC1)CC2)c1cncc(F)c1 [Example 191, N-((3-cyclobutyl-2,3,4,5-tetrahydro-1H-benzo[d]azepin-7-yl)methyl)-5-fluoronicotinamide]
24 | 1 nM | 11 nM | O=C(NCC1CCOCC1)c1ccc2c(c1)CCN(C1CCC1)CC2 [Example 35, 3-Cyclobutyl-N-((tetrahydro-2H-pyran-4-yl)methyl)-2,3,4,5-tetrahydro-1H-benzo[d]azepine-7-carboxamide]

Source: US20110124626A1, “BENZAZEPINE DERIVATIVES AND THEIR USE AS HISTAMINE H3 ANTAGONISTS” (TAKEDA PHARMACEUTICAL COMPANY LIMITED, priority 2008, published 2011)
